Assay results: US8618063B2, “Method for treating a synucleinopathy” (The Board of Trustees of the University of Illinois, priority 2008, dated 2013)
Entries after “also recorded” stand apart in the source; their conditions may differ. Read-outs that look alike come from different tables or passages of the source.

Tests used:
phosphorylation of DIC = experiment: NGF/BDNF (Trk receptor) induced shift of dynein intermediate chain; format: cell-based; settings: Trk neurotrophin receptors; Gö6976 at 100 nM
Excerpt: Specifically, NGF and BDNF binding to Trk neurotrophin receptors caused a shift in the apparent molecular weight of dynein intermediate chain (DIC). To identify the kinase pathway involved in this change, more than 30 different kinase and phosphatase inhibitors were screened.

DIC phosphorylation [1] = experiment: Reelin receptor stimulated DIC phosphorylation; format: cell-based
[2] = test system: Ala30Pro mutant α-synuclein induced failure of neurotransmission; experiment: Squid giant synapse: prevention of Ala30Pro α-synuclein induced failure of neurotransmission; format: cell-based; settings: co-injection / coperfusion with Ala30Pro α-synuclein
Experimental: If they both work by activating PKC and increasing retrograde transport, they might affect availability of synaptic vesicle components in presynaptic terminals. Accordingly, either wild-type α-synuclein, Ala30Pro α-synuclein, or MPP+ were injected into the presynaptic side of the squid giant synapse as described for synaptic vesicles and synapsin (McGuinness, et al. (1989) J. Neurosci. 9:4138-4149; Llinas, et al. (1989) Proc. Nat. Acad. Sci. USA 86:5656-5660). This preparation has been used to evaluate the effects of reagents on presynaptic function by injecting, then stimulating the presynaptic side while recording intracellularly on both pre- and post-synaptic sides (Llinas, et al. (2004) Proc. Natl. Acad. Sci. USA 101:17855-60; Sugimori, et al. (1998) Neuroscience 86:39-51).

[3] = test system: LB filaments (wild-type α-synuclein) effects on fast axonal transport; experiment: Isolated axoplasm: blocking of LB filament effects on fast axonal transport; format: cell-based, squid Loligo pealeii; settings: FIG. 4B
Experimental: (§1) Axoplasm was extruded from giant axons of the squid Loligo pealeii (Marine Biological Laboratory) according to established methods (Brady, et al. (1985) Cell Motil. 5(2):81-101). Axons were 400-600 μm in diameter and provided ≈5 μl of axoplasm per axon. Wild-type α-synuclein or α-synuclein with point mutations associated with familial Parkinson's disease (Ala30Pro or Ala53Thr), MPP+, enzymes or inhibitors were diluted into X/2 buffer (175 mM potassium aspartate, 65 mM taurine, 35 mM betaine, 25 mM glycine, 10 mM HEPES, 6.5 mM MgCl2, 5 mM EGTA, 1.5 mM CaCl2, 0.5 mM glucose, pH 7.2) supplemented with 2-5 mM ATP and 20 μl of this mix was added to perfusion chambers (Brady, et al. (1985) supra). Preparations were analyzed on a ZEISS AXIOMAT with a 100×, 1.3 na objective, and DIC optics. Hamamatsu Argus 20 and Model 2400 CCD camera were used for image processing and analysis. Organelle velocities were measured with a Photonics Microscopy C2117 video manipulator (Hamamatsu).
Plasmids containing wild-type α-synuclein; Ala30Pro α-synuclein and Ala53Thr α-synuclein for conventional expression in bacteria were used to generate synuclein protein used in axoplasm and squid giant synapse preparations. […] The ability of LB filaments to affect retrograde axonal transport in isolated axoplasm was evaluated, as were the effects of wild-type LB filaments on kinases.

DIC phosphorylation [4] = experiment: Labeling studies with MPP+ treated cortical neurons; format: cell-based; settings: MPP+ treated cortical neurons
Experimental: One mCi ^32P phosphate (ICN) was added per dish and incubated for 4 hours. Medium was discarded, cells homogenized in 1 ml of ROLB buffer and processed accordingly to standard methods (Morfini, et al. (2004) supra). Axoplasms were prepared as for video microscopy, but 1 mCi of γ-^32P-ATP was added. After 50 minutes incubation, axoplasms were homogenized in ROLB buffer. A 10 μl aliquot of lysate was precipitated with 15% TCA and radioactivity incorporated into protein determined by scintillation counting. Aliquots of equal counts were used for kinesin immunoprecipitation with 10 μg of 74.1 antibody and Protein G-agarose beads (Pierce). Immunoprecipitates were separated by SDS-PAGE, dried and exposed in a PHOSPHORIMAGER cassette, then scanned and quantified on a TYPHOON (Amersham/Molecular Dynamics).
(§2) MPTP/MPP+ is the best characterized example of toxin-induced Parkinson's disease. The effects of MPP+ on fast axonal transport were examined in axoplasm as was dynein phosphorylation in cells. […] Based on reports that MPP+ could activate caspase3 (Turmel, et al. (2001) Mov. Disord. 16:185-9) and that caspase3 can activate a PKC by proteolytic cleavage (Kaul, et al. (2003) Eur. J. Neurosci. 18:1387-401), the ability of a caspase3 inhibitor to block effects of MPP+ on fast axonal transport was evaluated. […] Further, perfusion with Caspase 3 affected retrograde transport in a manner similar to PKC and MPP+ (retrograde transport=1.462±0.016 μm/sec).

[5] = test system: Src/Fyn effects on fast axonal transport; experiment: Isolated axoplasm: blocking of Src/Fyn effects on fast axonal transport; format: cell-based, squid Loligo pealeii; settings: for blocking of Src/Fyn actions on fast axonal transport: concentration not given
Experimental: as §1
Screening of nonreceptor tyrosine kinases included Src- and Abl-family members. […] Given that neither kinesin nor dynein are known to have tyrosine phosphorylations, the ability of a broad spectrum PKC inhibitor Gö6976 was included in the assay to block the action of Fyn. Gö6976 inhibition of PKC abolished actions of Src/Fyn on fast axonal transport (FIG. 1D), as did perfusion of the MARCKS peptide.

[6] = test system: MPP+ effects on fast axonal transport; experiment: Isolated axoplasm: blocking of MPP+ effects on fast axonal transport; format: cell-based, squid Loligo pealeii; settings: FIG. 5B
Experimental: as §1, §2

[7] = test system: α-synuclein mutant Ala30Pro effects on fast axonal transport; experiment: Isolated axoplasm: blocking of mutant α-synuclein (Ala30Pro) effects on fast axonal transport; format: cell-based, squid Loligo pealeii; settings: coperfused with α-synuclein mutant Ala30Pro, FIG. 3
Experimental: as §1
Accordingly, these inhibitors were coperfused with pathological α-synuclein mutant Ala30Pro and fast axonal transport was monitored. […] Similarly, the effects of α-synuclein mutant Ala30Pro could be blocked by a PKCmu peptide substrate (FIG. 3B) and an inhibitor of Src-Family Tyrosine Kinases (PP2) (FIG. 3C).

PKCδ = PKCδ (Homo sapiens, UniProt Q05655); settings: cited from earlier work
PKCδ, sequence (Q05655 whole entry): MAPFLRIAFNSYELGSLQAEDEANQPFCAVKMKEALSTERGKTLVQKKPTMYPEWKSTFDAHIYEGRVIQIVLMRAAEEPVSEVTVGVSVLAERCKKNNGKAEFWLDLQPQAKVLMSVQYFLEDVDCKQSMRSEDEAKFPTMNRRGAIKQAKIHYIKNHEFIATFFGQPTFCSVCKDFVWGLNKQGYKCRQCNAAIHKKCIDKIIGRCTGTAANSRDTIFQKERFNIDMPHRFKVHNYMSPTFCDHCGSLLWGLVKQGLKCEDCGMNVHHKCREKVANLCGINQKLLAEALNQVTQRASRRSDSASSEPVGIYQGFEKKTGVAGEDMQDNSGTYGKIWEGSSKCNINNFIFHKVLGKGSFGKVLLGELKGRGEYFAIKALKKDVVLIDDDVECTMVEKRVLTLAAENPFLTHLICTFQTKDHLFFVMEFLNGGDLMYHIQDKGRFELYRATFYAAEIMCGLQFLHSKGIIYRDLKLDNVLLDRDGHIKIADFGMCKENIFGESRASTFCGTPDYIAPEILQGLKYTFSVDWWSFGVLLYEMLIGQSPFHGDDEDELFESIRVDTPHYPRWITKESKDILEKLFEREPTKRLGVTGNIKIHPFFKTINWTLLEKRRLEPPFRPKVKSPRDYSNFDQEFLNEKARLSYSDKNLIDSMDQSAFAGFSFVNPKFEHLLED

PKCβ = PKCβ (Homo sapiens, UniProt P05771); settings: cited from earlier work
PKCβ, sequence (P05771 whole entry, species assumed): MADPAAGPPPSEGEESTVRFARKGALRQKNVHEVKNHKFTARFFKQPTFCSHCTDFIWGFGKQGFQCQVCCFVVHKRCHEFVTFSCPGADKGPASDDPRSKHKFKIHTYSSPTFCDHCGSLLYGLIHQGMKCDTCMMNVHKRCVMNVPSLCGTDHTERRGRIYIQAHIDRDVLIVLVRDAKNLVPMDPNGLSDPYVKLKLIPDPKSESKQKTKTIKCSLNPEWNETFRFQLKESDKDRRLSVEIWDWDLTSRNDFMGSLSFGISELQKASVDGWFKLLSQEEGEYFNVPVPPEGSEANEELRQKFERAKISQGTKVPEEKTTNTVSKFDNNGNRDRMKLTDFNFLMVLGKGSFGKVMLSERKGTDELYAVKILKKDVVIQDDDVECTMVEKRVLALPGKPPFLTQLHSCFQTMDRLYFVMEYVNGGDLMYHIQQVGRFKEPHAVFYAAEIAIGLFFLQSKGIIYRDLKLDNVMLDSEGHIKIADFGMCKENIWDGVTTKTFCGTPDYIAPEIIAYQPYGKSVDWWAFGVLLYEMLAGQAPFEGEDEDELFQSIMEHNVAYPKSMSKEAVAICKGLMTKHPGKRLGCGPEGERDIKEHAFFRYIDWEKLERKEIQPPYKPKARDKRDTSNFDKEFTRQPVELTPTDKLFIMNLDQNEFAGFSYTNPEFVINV

PKCγ = PKCγ (Homo sapiens, UniProt P05129); settings: cited from earlier work
PKCμ = molecular target: T1, PKCμ (Homo sapiens, UniProt Q15139); settings: cited from earlier work
T1 sequence (Q15139 1-912): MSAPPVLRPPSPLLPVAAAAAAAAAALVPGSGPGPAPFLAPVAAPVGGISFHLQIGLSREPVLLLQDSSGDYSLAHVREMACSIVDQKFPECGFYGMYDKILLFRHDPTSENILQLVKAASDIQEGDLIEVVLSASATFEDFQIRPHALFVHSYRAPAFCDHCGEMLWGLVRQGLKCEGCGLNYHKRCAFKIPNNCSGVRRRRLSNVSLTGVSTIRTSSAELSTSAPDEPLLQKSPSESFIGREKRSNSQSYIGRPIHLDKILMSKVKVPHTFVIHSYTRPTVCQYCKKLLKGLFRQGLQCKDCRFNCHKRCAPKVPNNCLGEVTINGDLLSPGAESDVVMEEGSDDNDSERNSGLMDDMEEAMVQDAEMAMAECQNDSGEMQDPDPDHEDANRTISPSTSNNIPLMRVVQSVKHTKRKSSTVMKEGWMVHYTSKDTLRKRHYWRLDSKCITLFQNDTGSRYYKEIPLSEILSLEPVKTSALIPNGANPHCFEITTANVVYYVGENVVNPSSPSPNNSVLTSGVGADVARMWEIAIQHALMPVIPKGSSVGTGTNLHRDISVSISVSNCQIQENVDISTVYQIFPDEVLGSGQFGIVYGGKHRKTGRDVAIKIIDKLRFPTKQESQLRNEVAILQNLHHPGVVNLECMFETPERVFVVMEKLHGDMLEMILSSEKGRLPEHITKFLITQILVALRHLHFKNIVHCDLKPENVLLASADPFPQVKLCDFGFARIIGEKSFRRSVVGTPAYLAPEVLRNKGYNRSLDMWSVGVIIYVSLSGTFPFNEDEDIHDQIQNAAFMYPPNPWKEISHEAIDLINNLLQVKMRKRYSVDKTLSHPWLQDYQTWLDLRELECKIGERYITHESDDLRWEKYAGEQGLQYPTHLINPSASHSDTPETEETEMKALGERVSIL

PKCα = PKCα (Homo sapiens, UniProt P17252); settings: cited from earlier work
PKCζ = molecular target: T2, PKCζ (Homo sapiens, UniProt Q05513); settings: cited from earlier work
T2 sequence (Q05513 1-592): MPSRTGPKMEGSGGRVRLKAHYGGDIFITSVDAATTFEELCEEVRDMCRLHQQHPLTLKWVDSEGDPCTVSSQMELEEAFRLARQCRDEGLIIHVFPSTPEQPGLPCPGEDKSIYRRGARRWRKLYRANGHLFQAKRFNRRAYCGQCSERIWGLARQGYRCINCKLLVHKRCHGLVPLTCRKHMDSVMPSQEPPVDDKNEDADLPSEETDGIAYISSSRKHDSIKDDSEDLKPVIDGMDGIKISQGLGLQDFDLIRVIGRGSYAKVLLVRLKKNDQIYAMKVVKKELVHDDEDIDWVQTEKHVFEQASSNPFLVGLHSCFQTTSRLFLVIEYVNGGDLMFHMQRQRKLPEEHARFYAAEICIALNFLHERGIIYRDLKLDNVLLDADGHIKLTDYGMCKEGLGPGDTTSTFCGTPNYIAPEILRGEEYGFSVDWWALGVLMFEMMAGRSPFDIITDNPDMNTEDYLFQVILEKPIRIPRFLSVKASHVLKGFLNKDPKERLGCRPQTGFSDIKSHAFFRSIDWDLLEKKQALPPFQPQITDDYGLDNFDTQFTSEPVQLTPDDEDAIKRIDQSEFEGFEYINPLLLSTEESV

PKD [8] = molecular target: T3, PKD (Homo sapiens, UniProt Q15139); settings: read-out: PKD phosphorylation of the exogenous substrate syntide-2 IC50; cited from earlier work
T3 sequence (Q15139 1-912): T1 sequence (Q15139 1-912)

PKD [9] = molecular target: T3, PKD; settings: read-out: PKD autophosphorylation IC50; cited from earlier work
[10] = test system: cPKC-alpha, cPKC-beta, cPKC-gamma, nPKC-delta and nPKC-epsilon, and aPKC-zeta; settings: cited from earlier work
fast axonal transport = experiment: Motility studies in isolated axoplasm: effect of perfused substance on fast axonal transport; format: cell-based, squid Loligo pealeii; settings: substance perfused alone into isolated axoplasm
Experimental: as §1

Row | Molecule | blocking of NGF/BDNF induced shift (phosphorylation) of DIC (phosphorylation of DIC) | prevention of Ala30Pro α-synuclein effect on neurotransmission [2] | blocking of LB filament (wild-type α-synuclein) effects on fast axonal transport [3] | blocking of Src/Fyn actions on fast axonal transport [5] | blocking of MPP+ effects on fast axonal transport [6] | blocking of familial Parkinson's disease mutant α-synuclein (Ala30Pro) effects on fast axonal transport [7] | other results
1 | Cn1c2ccccc2c2c3c(c4c5ccccc5n(CCC#N)c4c21)CNC3=O [Gö6976, 5,6,7,13-Tetrahydro-13-methyl-5-oxo-12H-indolo[2,3-a]pyrrolo[3,4-c]carbazole-12-propanenitrile] | able to block | prevented | blocked | inhibited; also recorded: abolished | blocked | effective at blocking; also recorded: prevented | blocking of Reelin receptor stimulated increase in DIC phosphorylation (DIC phosphorylation [1]): blocked; blocking of MPP+ induced increase in DIC phosphorylation (DIC phosphorylation [4]): blocked; blocking of Fyn effects on fast axonal transport ([5]; 100 nM inhibitor, FIG. 1D): blocked
2 | COc1ccc2c(c1)c(C1=C(c3c[nH]c4ccccc34)C(=O)NC1=O)cn2CCCN(C)C [Gö6983] | failed to block | not effective |  | did not block | blocked | ineffective; also recorded: not effective | IC50 (PKCδ): 10 nM; IC50 (PKCβ): 7 nM; IC50 (PKCγ): 6 nM; IC50 (PKCμ): 20000 nM; IC50 (PKCα): 7 nM; IC50 (PKCζ): 60 nM
3 | CC(C)(C)n1nc(-c2ccc(Cl)cc2)c2c(N)ncnc21 [PP2, 4-amino-5-(4-chlorophenyl)-7-(t-butyl) pyrazolo[3,4-d-]pyrimidine] |  | prevented | blocked |  | did not | effective at blocking; also recorded: blocked | 
4 | Oc1ccc(C=Cc2cc(O)cc(O)c2)cc1 [resveratrol] |  |  |  |  |  |  | IC50 (PKD [8]): 36000 nM; IC50 (PKD [9]): 52000 nM; effects against the autophosphorylation reactions of PKC isozyme subfamily members [10]: negligible effects
5 | Fyn: Src-Family nonreceptor tyrosine kinase perfused into axoplasm |  |  |  |  |  |  | effect on fast axonal transport (retrograde RT / anterograde AT), in words (fast axonal transport): indistinguishable from the effects of PKCs; also recorded: a rapid increase in the amount and rate of retrograde transport accompanied by a slow decline in anterograde transport
